Paper PMC4754833, “Rilpivirine analogs potently inhibit drug-resistant HIV-1 mutants” (Retrovirology, 2016)
Like-named read-outs stand apart in the source and are kept apart here.

Key:
[1] = test system: WT HIV-1; test: single round infection luciferase assay, WT HIV-1; assay type: cell-based; details: Human immunodeficiency virus 1
Description: (§1) The human osteosarcoma cell line, HOS, was obtained from Dr. Richard Schwartz (Michigan State University, East Lansing, MI) and grown in Dulbecco’s modified Eagle’s medium (Invitrogen, Carlsbad, CA) supplemented with 5 % (v/v) fetal bovine serum, 5 % newborn calf serum, and penicillin (50 units/ml) plus streptomycin (50 µg/ml; Quality Biological, Gaithersburg, MD). Virion production and single-round infectivity assays were used to determine antiviral activity (IC50 values) of the compounds as previously described.
(§2) pNLNgoMIVR-ΔEnv.LUC has been described previously. The RT open reading frame was removed from pNLNgoMIVR-ΔEnv.LUC (digestion with SpeI and SalI) and inserted between the SpeI and SalI sites of pBluescript II KS+. Using that construct as the wild-type template, we prepared the following HIV-1 RT mutants using the QuikChange II XL (Stratagene, La Jolla, CA) site-directed mutagenesis protocol kit: L100I, K103N, Y181C, Y188L, H221Y, K103N/Y181C, G190A, G190S, M230L, P236L, L100I/K103N, K103N/P225H, V106A/G190A/F227L, V106A, L234I, V106A/F227L, V106A/L234I, V106A/F227L/L234I, E40K, D67E, K101E, V111A, E138K, M184I, M184V, K101E/M184I, K101E/M184V, E138K/M184I, E138K/M184V, K101P, Y181I, and K101P/V179I. The following sense oligonucleotides were used with matching cognate antisense oligonucleotides (not shown) (Integrated DNA Technologies, Coralville, IA) in the mutagenesis: L100I, 5′-[…]-3′; L100I 2-103, 5′-[…]-3′; K103N, 5′-[…]-3′; Y181C, 5′-[…]-3′; Y188L, 5′-[…]-3′; H221Y, 5′-[…]-3′; G190A, 5′-[…]-3′; G190S, 5′-[…]-3′; P225H, 5′-[…]-3′; F227, 5′-[…]-3′; M230L, 5′-[…]-3′; P236L, 5′-[…]-3′; V106A, 5′-[…]-3′; L234I, 5′-[…]-3′; E40K, 5′-[…]-3′; D67E, 5′-[…]-3′; K101E, 5′-[…]-3′; V111A, 5′-[…]-3′; E138K, 5′-[…]-3′; M184I, 5′-[…]-3′; M184V, 5′-[…]-3′; K101P, 5′-[…]-3′; Y181I, 5′-[…]-3′; K101P/V179I, 5′-[…]-3′. The double mutants K103N/Y181C, K103N/P225H, and L100I/K103N were made using the previously generated K103N mutant and the appropriate oligonucleotides to add the second mutation, Y181C, P225, and L100I respectively. The double mutants V106A/F227L and V106A/L234I were prepared using the previously generated V106A mutant and the appropriate oligonucleotides to add the second mutation, F227L and L234I, respectively. The double mutants K101E/M184I and K101E/M184V were constructed using the previously generated K101E mutant and the appropriate oligonucleotides to add the second mutation, M184I and M184V, respectively. The double mutants E138K/M184I and E138K/M184V were constructed using the previously generated E138K mutant and the appropriate oligonucleotides for the second mutation, M184I and M184V, respectively. The triple mutant V106A/F227L/L234I was made using the previously generated V106A/F227L double mutant and the appropriate oligonucleotides for the third mutation, L234I. The triple mutant V106A/G190A/F227L was constructed in a series of steps using the previously generated V106A mutant and the appropriate oligonucleotides for the second mutation, G190A, to generate the double mutant V106A/G190A, and then the triple mutant was made using double mutant V106A/G190A and oligonucleotides for the third mutation, F227L. The DNA sequence of each construct was verified by DNA sequence determination. The sequences encoding the mutant RTs were then subcloned into pNLNgoMIVR-ΔEnv.LUC (between the KpnI and SalI sites) to produce the mutant HIV-1 constructs. These DNA sequences were also checked independently by DNA sequence determination.
(§3) 10.1186/s12977-016-0244-2 The IC50 values (nM) of RPV and the RPV analogs were determined against the NNRTI resistant mutants were measured by using a single round infection assay, n = 4. The concentrations (nM) are measured by reductions in luciferase reporter activity followed by the standard deviations. […]

[2] = test system: HIV-1 RT mutant G190S; test: single round infection assay, G190S; assay type: cell-based; details: Human immunodeficiency virus 1
Description: as §1, §2, §3

[3] = test system: HIV-1 RT mutant M230L; test: single round infection assay, M230L; assay type: cell-based; details: for fold-change of IC50 of the mutant relative to WT: M230L vs WT; for IC50: Human immunodeficiency virus 1, M230L, ± SD, n=4, limit of detection 100 nM
Description: as §1, §2, §3

[4] = test system: HIV-1 RT mutant K103N/P225H; test: single round infection assay, K103N/P225H; assay type: cell-based; details: for IC50: Human immunodeficiency virus 1; for fold-change of IC50 of the mutant relative to WT: K103N/P225H vs WT
Description: as §1, §2, §3

[5] = test system: HIV-1 RT mutant V106A; test: single round infection assay, V106A; assay type: cell-based; details: for fold-change of IC50 of the mutant relative to WT: V106A vs WT; for IC50: ± SD, n=4
Description: as §1, §2, §3

[6] = test system: HIV-1 RT mutant E40K; test: single round infection assay, E40K; assay type: cell-based; details: for fold-change of IC50 of the mutant relative to WT: E40K vs WT
Description: as §1, §2, §3

[7] = test system: HIV-1 RT mutant K101E; test: single round infection assay, K101E; assay type: cell-based; details: for IC50: ± SD, n=4; for fold-change of IC50 of the mutant relative to WT: K101E vs WT
Description: as §1, §2, §3

[8] = test system: HIV-1 RT mutant E138K/M184I; test: single round infection assay, E138K/M184I; assay type: cell-based; details: for fold-change of IC50 of the mutant relative to WT: E138K/M184I vs WT; for IC50: ± SD, n=4
Description: as §1, §2, §3

[9] = test system: HIV-1 RT mutant K101P/V179I; test: single round infection assay, K101P/V179I; assay type: cell-based; details: for IC50: Human immunodeficiency virus 1
Description: as §1, §2, §3

[10] = test system: WT HIV-1; details: previous study; cited from earlier work
[11] = test system: HIV-1 RT mutant K103N; set-up: method as in PMID 23217210; details: previous study; cited from earlier work
[12] = test system: HIV-1 RT mutant H221Y; set-up: method as in PMID 23217210; details: previous study; cited from earlier work
[13] = test system: HIV-1 RT mutant V106A/F227L/L234I; test: single round infection assay, V106A/F227L/L234I; assay type: cell-based; details: for IC50: ± SD, n=4; for fold-change of IC50 of the mutant relative to WT: V106A/F227L/L234I vs WT
Description: as §1, §2, §3

[14] = Human immunodeficiency virus 1, K101E
[15] = Human immunodeficiency virus 1, V106A (selected by DOR)
[16] = Human immunodeficiency virus 1, V106A/F227L/L234I (selected by DOR)
[17] = V106A/F227L/L234I (selected by DOR)
[18] = Human immunodeficiency virus 1, E138K/M184I

Structure (SMILES) | IC50 [1] | IC50 [2] | fold-change of IC50 of the mutant relative to WT [3] | IC50 [4] | fold-change of IC50 of the mutant relative to WT [4] | fold-change of IC50 of the mutant relative to WT [5] | fold-change of IC50 of the mutant relative to WT [6] | IC50 [7, 14] | fold-change of IC50 of the mutant relative to WT [7] | IC50 ([7]; K101E) | fold-change of IC50 of the mutant relative to WT [8] | IC50 [9] | IC50 [10] | IC50 [11] | IC50 [12] | IC50 [3] | IC50 [5, 15] | IC50 [13, 16] | IC50 [13, 17] | fold-change of IC50 of the mutant relative to WT [13] | further results
Cc1cc(/C=C/C#N)cc(C)c1Nc1ccnc(Nc2ccc(C#N)cc2)n1 [RPV, rilpivirine] | 0.24 ± 0.1 nM | 0.11 ± 0.01 nM | 7 | 0.6 ± 0.2 nM | 3 | < 2 | < 2 | < 2.5 nM | 11 | 2.6 ± 1.6 nM | 5 | 93.5 ± 12.1 nM | < 7 nM | < 7 nM | < 7 nM | – | – | – | – | – | fold-change of IC50 of the mutant relative to WT ([9]; K101P/V179I vs WT): 390
Cc1cc(/C=C/C#N)cc(C)c1Nc1ncc(N)c(Nc2ccc(C#N)cc2)n1 [compound 9] | 1.3 ± 0.2 nM | 0.6 ± 0.07 nM | 23 | 4.6 ± 0.3 nM | 4 | < 2 | 2 | < 6 nM | 3 | 4.1 ± 1.5 nM | 2 | > 100 nM | < 7 nM | < 7 nM | < 7 nM | 29.6 nM | < 5 nM | < 5 nM | 6.4 ± 1.8 nM | 5 | IC50 ([5]; V106A (selected by DOR)): 2.5 ± 1.2 nM; IC50 ([8]; E138K/M184I): 3 ± 0.3 nM; IC50 [8, 18]: < 6 nM
COc1ccc(Cn2cnc3c(Nc4ccc(C#N)cc4)nc(Nc4c(C)cc(/C=C/C#N)cc4C)nc32)cc1 [compound 12] | 0.67 ± 0.06 nM | 0.37 ± 0.02 nM | 21 | 3 ± 0.4 nM | 4 | < 2 | < 2 | 3.3 ± 0.3 nM | 5 | – | 4 | > 100 nM | < 7 nM | < 7 nM | < 7 nM | 13.8 nM | – | – | – | < 2 | IC50 ([6]; Human immunodeficiency virus 1, E40K, ± SD, n=4): 1 ± 0.04 nM; IC50 [8, 18]: 2.4 ± 0.5 nM
CC(=O)c1ccc(Nc2nc(Nc3c(C)cc(/C=C/C#N)cc3C)nc3[nH]cnc23)cc1 [compound 14] | 0.41 ± 0.08 nM | 0.35 ± 0.05 nM | 7 | 0.92 ± 0.14 nM | 2 | 10 | < 2 | < 2.5 nM | 4 | 1.7 ± 0.5 nM | 3 | > 100 nM | < 7 nM | < 7 nM | < 7 nM | – | < 5 nM | < 5 nM | 2.7 ± 0.64 nM | 7 | IC50 ([5]; V106A (selected by DOR)): 4.3 ± 0.5 nM
COc1ccc(Nc2nc(Nc3c(C)cc(/C=C/C#N)cc3C)nc3[nH]cnc23)cc1 [compound 16] | 0.17 ± 0.01 nM | 0.17 ± 0.05 nM | 15 | 2.7 ± 0.07 nM | 16 | 3 | < 2 | – | 5 | – | 5 | > 100 nM | < 7 nM | < 7 nM | < 7 nM | – | – | < 5 nM | 3 ± 0.8 nM | 18 | –
